Values of other authors in US20260201040A1, “TREATMENT OF SICKLE CELL DISEASE” (BioLineRx Ltd., priority 2022, published 2026).

Test system: CD34+ HSCs
Details: short-acting CXCR4i, alone

Compound: c1cc(CN2CCCNCCNCCCNCC2)ccc1CN1CCCNCCNCCCNCC1 [plerixafor]
- yield of optimal HSC numbers for gene therapy applications: does not reliably yield optimal HSC numbers
